Experimental data reported in patent US20250275976A1, “Methods of Treating Neuroinflammatory Conditions” (Athira Pharma, Inc., priority 2022, published 2025).
Values joined by “and” are separate entries in the source; they are usually repeats but may differ in a detail not shown here. Equal entries are not always repeated. “Also recorded” adds a separate entry of the source. Where two headings read alike, the source gives them in different places. Square brackets hold non-standard residues; d marks the D form. Peptide text beside a SMILES is read from it. * marks the point of attachment. pY = N[CH](Cc1ccc(OP(=O)(O)O)cc1)C(=O)O; Hexanoyl = CCCCCC(=O)*; Ahx = NCCCCCC(=O)O

Legend:
[1] = tested on: Rat primary cortical neuron cultures; conditions: LPS 24 h
Description: (§1) To assess the neuroprotective effect of compound treatment against inflammatory insult, primary cultured cortical neurons were subjected to lipopolysaccharide (LPS) treatment for 24h along with various compound doses of compounds of Formula (I) or Compound A19. […] Rat primary cortical neuron cultures were grown at 37° C., 5% C02 in Complete Neurobasal Medium supplemented with B27/GDNF/BDNF containing 10% FBS until maturity. 25 μl of culture volume were seeded in a 384-well plate at 5,000 cells/well, and treated with 1 μM, 100 nM, 10 nM, 1 nM, or 0.1 nM of test compound for 15 minutes. Cells were then subjected to 1 μM LPS challenge for 24 hours. Luminescence measurements to assess relative levels of ATP were performed on an Envision plate reader (Perkin Elmer). Data for DMSO control were set to 100% cell viability, and each group (n=4) were averaged and presented as mean±SEM.

[2] = tested on: Rat primary cortical neuron cultures; experiment: Neuroprotection of rat cortical neurons against LPS challenge (Cell Titer-Glo); conditions: at at least one dose tested
Description: as §1

male CD-1 mice = experiment: T-maze spontaneous alternation, LPS-induced cognitive deficit; type: in vivo, mouse; conditions: for Spontaneous alternation (%) Mean: LPS 250 μg/kg i.p.; for Recovery (%): saline/vehicle = 100%, LPS/vehicle = 0%; for Reversal of LPS-induced cognitive deficit in T-maze (result in words): ANOVA, Fisher's PLSD, p<0.05, doses as in the value
Source text: Encephalitis refers to inflammation of the brain that may result in brain swelling fever, headache, confusion, and seizures. The source of neuroinflammation can vary widely, including due to viral, bacterial, parasitic, or fungal infection or due to autoimmune diseases. Lipopolysaccharide (LPS) is a bacterial endotoxin that induces an intense neuroinflammatory reaction and has been associated with cognitive decline. The ability of Compound A19 to reverse cognitive decline induced by LPS in a mouse model of encephalitis was studied using a T-maze assay. In a separate substantially similar assay, Compounds 1a and 5a were also assessed.
Spontaneous and continuous alternation is the innate tendency of rodents to alternate free choices in a T-maze (T-CAT) over a series of successive runs. This sequential procedure relies on working memory and is sensitive to various pharmacological manipulations affecting memory processes. The present studies were conducted to evaluate the abilities of Compound A19, Compound 1a and Compound 5a to reverse LPS-induced cognitive deficit in the T-maze assay.
Compound A19 was dissolved in 0.9% NaCl (saline) and vortexed periodically until complete dissolution and with the pH adjusted between 7.4 and 7.8. Compound A19 was used in concentrations of 0.125, 0.1, 0.05, 0.025 and 0.0125 mg/ml which when given in a volume of 10 ml/kg result in doses of 1.25, 1, 0.5, 0.25 and 0.125 mg/kg, respectively. Compound 1a was dissolved at 160 mg/ml in 100% DMSO and vortexed until complete dissolution. Then the above stock solution was diluted in 20% PEG-400 and 78% 0.9% NaCl, whereby the stock solution comprised 2% of the final solution. Compound 1a was used in concentrations of 0.05, 0.2, 0.8, 1.6 and 3.2 mg/ml which when given in a volume of 10 ml/kg result in doses of 0.5, 2, 8, 16 and 32 mg/kg, respectively. Compound 5a was dissolved at 100 mg/ml in 100% DMSO and vortexed until complete dissolution. Then the above stock solution was diluted in 20% PEG-400 and 78% 0.9% NaCl, whereby the stock solution comprised 2% of the final solution. Compound 5a was used in concentrations of 0.125, 0.25, 0.5, 1 and 2 mg/ml which when given in a volume of 10 ml/kg result in doses of 1.25, 2.5, 5, 10 and 20 mg/kg, respectively.
Memantine was dissolved in saline. Memantine was used in concentration of 0.1 and 0.01 mg/ml, which when given in a volume of 10 ml/kg result in a dose of 1 and 0.1 mg/kg, respectively. Memantine is approved for symptomatic treatment of Alzheimer's disease was used as a reference compound.
LPS was dissolved in saline and prepared at a concentration of 0.0125 mg/ml and given intraperitoneally (i.p.) at a dosage volume of 20 ml/kg to yield a dose of 0.25 mg/kg ([…]).
Four to five weeks old male CD-1 mice (Janvier; Le Genest St Isle - France) were used for the study.
LPS was injected i.p. 2 weeks prior the T-maze trial. Compound 1a was tested at doses of 0.5, 2, 8, 16, and 32 mg/kg administered orally (p.o.) for 14 days with last treatment given 60 min before the T-maze trial. Compound 5a was tested at the doses of 1.25, 2.5, 5, 10, and 20 mg/kg administered orally (p.o.) for 14 days with last treatment given 60 min before the T-maze trial. LPS was injected i.p. 2 weeks prior the T-maze trial.
The T-maze apparatus was made of gray Plexiglas with a main stem (55 cm long×10 cm wide×20 cm high) and two arms (30 cm long×10 cm wide×20 cm high) positioned at a 90-degree angle relative to the main stem. A start box (15 cm long×10 cm wide) was separated from the main stem by a guillotine door. Horizontal doors were also provided to close specific arms during the force choice alternation task.
The experimental protocol consisted of a single session, which started with one “forced-choice” trial, followed by 14 “free-choice” trials. In the “forced-choice” trial, the animal was confined 5 seconds in the start arm and was then released while either the left or right goal arm was blocked by a horizontal door. […]

Prp-TDP43^A315T mice = type: in vivo
Description: Extranuclear accumulation of TDP-43 protein is a pathological hallmark of a number of neurological diseases. […] Male Prp-TDP43^A315T mice (N=10 mice per group) at 3 weeks of age were administered daily treatments of test compounds. Compound A19 was administered via subcutaneous injection, and Compound 5a and Compound 6a were administered via oral gavage. After 2 months of treatment, plasma samples were collected for cytokine quantification. […] Plasma IL-6 and TNF-α cytokine expression levels were determined using the ELISA method. The submandibular vein was punctured with a lancet and a blood drop was collected directly on a microtube containing EDTA as anticoagulant. Samples were centrifuged for 15 minutes at 1000×g at 4° C. within 20 minutes of collection. 20 μl of plasma supernatant was stored at −20° C. before ELISA analysis.
Plasma was diluted at 1:10 in sterile PBS, and IL-6 and TNF-α quantification was performed in duplicate for each animal using 10 μl of sample per well in 96-well plates using the ELISA method (IL-6: Signa-Aldrich Cat #RAB0308, TNF-α: Sigma-Aldrich Cat #RAB0477). Statistical analysis was carried out by 2-way ANOVA with Dunnett's multiple comparisons post-test with compound-treated samples compared to vehicle-treated samples.

[3] = tested on: Rat primary cortical neuron cultures; experiment: Neuroprotection of rat primary cortical neurons against neurotoxic insults (Cell Titer-Glo viability); type: cell-based; conditions: for Statistical significance vs. insult control (cell viability): Positive Control MK-801 (1 uM)
Source text: HGF/MET signaling activation is expected to protect cells, including neurons, from cell death. […] Hydrogen peroxide (H2O2) treatment produces toxic oxidative stress. Bacteria-derived lipopolysaccharide (LPS) treatment induces inflammatory cell death. Treatment with excess glutamate (Glut) produces excitotoxicity in neuron cultures. Treatment with 1-methyl-4-phenylpyridinium (MPP^+) causes cell death by inhibition of mitochondrial function.
Cells were then subjected to individual conditional insults for 24 hours at the following concentrations: H2O2 at 1 uM, LPS at 1 uM, glutamate at 25 uM, or MPP+ at 500 uM. All treatments contained recombinant human HGF (R&D Systems) at a concentration of 5 ng/ml. MK-801 (Dizocilpine) is a pore blocker of the N-Methyl-D-aspartate (NMDA) receptor, a glutamate receptor, and was used as a positive control.
Data was normalized to DMSO+HGF control set at 100% cell viability.
Data are reported as statistical significance vs. insult control, with NS=not significant, +=p<0.05, ++=p<0.01, and +++=p<0.001.

[4] = 2 months of treatment, doses as in the value
[5] = insult alone 24 h (H2O2 1 uM, Glutamate 25 uM, LPS 1 uM, MPP+ 500 uM), Compound 1a study, Table 2
[6] = insult alone (H2O2 1 uM, Glutamate 25 uM, LPS 1 uM, MPP+ 500 uM), A19 active metabolite study, Table 3

For `CCC(C)CN1CC2N(C(=O)c3ccc(OC(F)F)cc3)CCC(=O)N2[C@@H](C)C1=O` (some centres unmarked) [Compound 2a], the “Significance of neuroprotection vs 1 uM LPS” value (shortened to “Significance … vs 1 uM LPS”) ([1]; dose 0.1 nM) was “+++ (+++ indicates p<0.001)”, the “Significance … vs 1 uM LPS” value ([1]; dose 1 nM) was “+++ (+++ indicates p<0.001)” and the “Significance … vs 1 uM LPS” value ([1]; dose 10 nM) was “+++ (+++ indicates p<0.001)”. For the same compound, the “Significance … vs 1 uM LPS” value ([1]; dose 100 nM) was “+++ (+++ indicates p<0.001)”, the “Significance … vs 1 uM LPS” value ([1]; dose 1 μM) was “+++ (+++ indicates p<0.001)” and the “Protection of primary neurons from LPS-stimulated inflammatory toxicity (in words)” value [2] was “protected primary neurons from LPS-stimulated inflammatory toxicity”.

For `CCCCCC(=O)NC(Cc1ccc(OP(=O)(O)O)cc1)C(=O)NC(C(=O)NCCCCCC(N)=O)C(C)CC` (centres unmarked) [Compound A19] (Hexanoyl-[pY]-Ile-[Ahx]-NH2; configuration not given here), the “Spontaneous alternation (%) Mean” value (male CD-1 mice; A19 0.125 mg/kg s.c. daily 14 days, 0.125 mg/kg) was 42% and 42.1%, the “Recovery (%)” value (male CD-1 mice; A19 0.125 mg/kg s.c., 0.125 mg/kg) was -12% and the “Spontaneous alternation (%) Mean” value (male CD-1 mice; A19 0.25 mg/kg s.c. daily 14 days, 0.25 mg/kg) was 60%. For the same compound, the “Recovery (%)” value (male CD-1 mice; A19 0.25 mg/kg s.c.) was 62%, the “Spontaneous alternation (%) Mean” value (male CD-1 mice; A19 0.5 mg/kg s.c. daily 14 days, 0.5 mg/kg) was 64% and 64.3% and the “Recovery (%)” value (male CD-1 mice; A19 0.5 mg/kg s.c.) was 79%. The “Spontaneous alternation (%) Mean” value (male CD-1 mice; A19 1 mg/kg s.c. daily 14 days, 1 mg/kg) was 61% and 60.7%, the “Recovery (%)” value (male CD-1 mice; A19 1 mg/kg s.c.) was 65% and the “Spontaneous alternation (%) Mean” value (male CD-1 mice; A19 1.25 mg/kg s.c. daily 14 days, 1.25 mg/kg) was 61% and 60.7%. The “Recovery (%)” value (male CD-1 mice; A19 1.25 mg/kg s.c., 1.25 mg/kg) was 58%, the “Reversal of LPS-induced cognitive deficit in T-maze (result in words)” value (male CD-1 mice) was “significant at all doses except at 0.125 mg/kg; also recorded: reversed the LPS-induced cognitive disruption” and the “Significant decrease in plasma cytokine expression after 2 months of treatment: IL-6” value (Prp-TDP43^A315T mice; 0.005 mg/kg SC daily) was “++++ (++++ = p < 0.0001)”. The “Significant decrease in plasma cytokine expression after 2 months of treatment: TNF-α” value (Prp-TDP43^A315T mice; 0.005 mg/kg SC daily) was “++++ (++++ = p < 0.0001)”, the “Significant decrease in plasma cytokine expression after 2 months of treatment: TNF-α” value (Prp-TDP43^A315T mice; 0.01 mg/kg SC daily) was “+ (+ = p < 0.05)” and the “Significant decrease in plasma cytokine expression after 2 months of treatment: IL-6” value (Prp-TDP43^A315T mice; 0.03 mg/kg SC daily) was “+ (+ = p < 0.05)”. For the same compound, the “Plasma IL-6 expression (result in words)” value (Prp-TDP43^A315T mice; [4]) was “significantly reduced TL-6 expression at doses of 0.005, 0.01, and 0.03 mg/kg” and the “Plasma TNF-α expression (result in words)” value (Prp-TDP43^A315T mice; [4]) was “significantly reduced TNF-α expression at 0.005 and 0.01 mg/kg”.

With `OO` [Compound H2O2, Hydrogen peroxide, reference compound] the “Insult effect (% viability vs vehicle)” value [3, 5] was 64.23% and the “Insult effect (% viability vs vehicle)” value [3, 6] was 59.35%.

For `N[C@@H](CCC(=O)O)C(=O)O` [Glutamate, glutamate, reference compound], the “Insult effect (% viability vs vehicle)” value [3, 5] was 49.55% and the “Insult effect (% viability vs vehicle)” value [3, 6] was 54.4%.

With `C[C@]12N[C@H](Cc3ccccc31)c1ccccc12` [MK-801, Dizocilpine, reference compound] the “Statistical significance vs. insult control (cell viability)” value ([3]; Glutamate (25 uM) insult) was “+++ (+++=p<0.001)”, the “Statistical significance vs. insult control (cell viability)” value ([3]; H2O2 (1 uM) insult) was “+++ (+++=p<0.001)” and the “Statistical significance vs. insult control (cell viability)” value ([3]; LPS (1 uM) insult) was “+++ (+++=p<0.001)”. The “Statistical significance vs. insult control (cell viability)” value ([3]; MPP+ (500 uM) insult) was “+++ (+++=p<0.001)”.

For `C[n+]1ccc(-c2ccccc2)cc1` [MPP+, 1-methyl-4-phenylpyridinium, reference compound], the “Insult effect (% viability vs vehicle)” value [3, 5] was 49.85% and the “Insult effect (% viability vs vehicle)” value [3, 6] was 54.3%.

In the case of `CC12CC3CC(C)(C1)CC(N)(C3)C2` [Memantine, reference compound], the “Reversal of LPS-induced cognitive deficit in T-maze (result in words)” value (male CD-1 mice) is reported as “significant at both doses”, the “Spontaneous alternation (%) Mean” value (male CD-1 mice; Memantine 0.1 mg/kg i.p. daily 14 days) is reported as 64% and 63.6% and the “Recovery (%)” value (male CD-1 mice; Memantine 0.1 mg/kg i.p.) is reported as 76%. For the same compound, the “Spontaneous alternation (%) Mean” value (male CD-1 mice; Memantine 1 mg/kg i.p. daily 14 days) was 54% and 54.3% and the “Recovery (%)” value (male CD-1 mice; Memantine 1 mg/kg i.p.) was 38%.
